Laboratory results taken from PubChem BioAssay (NCI).
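Tested at 5 concentrations; 48 h exposure; 96-well plates; endpoints linearly interpolated, else capped at highest concentration. GI50: concentration for 50% inhibition of growth. Definition used: TGI = concentration required for complete inhibition of growth.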

Experiments:
Test in all cases: NCI tumour cell line growth inhibition, 48 h
[1] = test system: 786-0 renal
[2] = test system: A498 renal
[3] = test system: A549 NSCLC
[4] = test system: ACHN renal
[5] = test system: BT-549 breast
[6] = test system: CAKI-1 renal
[7] = test system: CCRF-CEM leukemia
[8] = test system: COLO 205 colon
[9] = test system: DU-145 prostate
[10] = test system: EKVX NSCLC
[11] = test system: HCC-2998 colon
[12] = test system: HCT-116 colon
[13] = test system: HCT-15 colon
[14] = test system: HL-60(TB) leukemia
[15] = test system: HOP-62 NSCLC
[16] = test system: HOP-92 NSCLC
[17] = test system: HS 578T breast
[18] = test system: HT29 colon
[19] = test system: IGROV1 ovarian
[20] = test system: K-562 leukemia
[21] = test system: KM12 colon
[22] = test system: LOX IMVI melanoma
[23] = test system: M14 melanoma
[24] = test system: MALME-3M melanoma
[25] = test system: MCF7 breast
[26] = test system: MDA-MB-231 breast
[27] = test system: MDA-MB-435
[28] = test system: MDA-MB-468 breast
[29] = test system: MOLT-4 leukemia
[30] = test system: NCI-H226 lung
[31] = test system: NCI-H23 lung
[32] = test system: NCI-H460 lung
[33] = test system: NCI-H522 lung
[34] = test system: NCI/ADR-RES ovarian
[35] = test system: OVCAR-3 ovarian
[36] = test system: OVCAR-4 ovarian
[37] = test system: OVCAR-5 ovarian
[38] = test system: OVCAR-8 ovarian
[39] = test system: PC-3 prostate
[40] = test system: RPMI-8226 leukemia
[41] = test system: RXF 393 renal
[42] = test system: SF-268 CNS
[43] = test system: SF-295 CNS
[44] = test system: SF-539 CNS
[45] = test system: SK-MEL-2 melanoma
[46] = test system: SK-MEL-28 melanoma
[47] = test system: SK-MEL-5 melanoma
[48] = test system: SK-OV-3 ovarian
[49] = test system: SN12C renal
[50] = test system: SNB-19 CNS
[51] = test system: SNB-75 CNS
[52] = test system: SR leukemia
[53] = test system: SW-620 colon
[54] = test system: T-47D breast
[55] = test system: TK-10 renal
[56] = test system: U251 CNS
[57] = test system: UACC-257 melanoma
[58] = test system: UACC-62 melanoma
[59] = test system: UO-31 renal

`Cn1ncc2c(N)nc(Oc3ccccc3-c3ccccc3)nc21` gave a GI50 [1] of 26.4 µM, a TGI [1] greater than 100 µM and a GI50 [2] of 62.2 µM. It also gave a TGI [2] greater than 100 µM, a GI50 [3] of 6.74 µM and a TGI [3] greater than 100 µM. The GI50 [4] was 20.6 µM, the TGI [4] was greater than 100 µM and the GI50 [5] was 4.28 µM. For the same molecule, the TGI [5] was 37.6 µM, the GI50 [6] was 7.72 µM and the TGI [6] was greater than 100 µM. The GI50 [7] was 3.73 µM, the TGI [7] was 46.3 µM and the GI50 [8] was 7.05 µM. It also gave a TGI [8] greater than 100 µM, a GI50 [9] of 32.3 µM and a TGI [9] greater than 100 µM. It also gave a GI50 [10] of 9.41 µM, a TGI [10] greater than 100 µM and a GI50 [11] of 10.2 µM. It also gave a TGI [11] greater than 100 µM, a GI50 [12] of 4.53 µM and a TGI [12] greater than 100 µM. For the same molecule, the GI50 [13] was 3.79 µM, the TGI [13] was greater than 100 µM and the GI50 [14] was 3.93 µM. For the same molecule, the TGI [14] was 30.5 µM, the GI50 [15] was 32 µM and the TGI [15] was greater than 100 µM. It also gave a GI50 [16] of 14.3 µM, a TGI [16] greater than 100 µM and a GI50 [17] of 5.73 µM. It also gave a TGI [17] of 41.4 µM, a GI50 [18] of 3.4 µM and a TGI [18] of 34.6 µM. It also gave a GI50 [19] of 8.02 µM, a TGI [19] greater than 100 µM and a GI50 [20] of 3.44 µM. It also gave a TGI [20] greater than 100 µM, a GI50 [21] of 4.82 µM and a TGI [21] greater than 100 µM. For the same molecule, the GI50 [22] was 7.01 µM, the TGI [22] was greater than 100 µM and the GI50 [23] was 4.54 µM. It also gave a TGI [23] greater than 100 µM, a GI50 [24] of 4.3 µM and a TGI [24] greater than 100 µM. The GI50 [25] was 3.66 µM, the TGI [25] was greater than 100 µM and the GI50 [26] was 4.54 µM. It also gave a TGI [26] greater than 100 µM, a GI50 [27] of 1.99 µM and a TGI [27] of 5.44 µM. For the same molecule, the GI50 [28] was 1.74 µM, the TGI [28] was 4.92 µM and the GI50 [29] was 4.22 µM. The TGI [29] was 34.7 µM, the GI50 [30] was 6.65 µM and the TGI [30] was 97.2 µM. The GI50 [31] was 8.54 µM, the TGI [31] was greater than 100 µM and the GI50 [32] was 3.87 µM. It also gave a TGI [32] greater than 100 µM, a GI50 [33] of 2.21 µM and a TGI [33] of 7.03 µM. It also gave a GI50 [34] of 3.26 µM, a TGI [34] of 17.5 µM and a GI50 [35] of 6.61 µM. It also gave a TGI [35] greater than 100 µM, a GI50 [36] of 19.3 µM and a TGI [36] greater than 100 µM. The GI50 [37] was 6.5 µM, the TGI [37] was greater than 100 µM and the GI50 [38] was 13.1 µM. The TGI [38] was 65.1 µM, the GI50 [39] was 13.3 µM and the TGI [39] was greater than 100 µM. The GI50 [40] was 3.94 µM, the TGI [40] was 27.4 µM and the GI50 [41] was 10.3 µM. The TGI [41] was 47 µM, the GI50 [42] was 23.7 µM and the TGI [42] was greater than 100 µM. The GI50 [43] was 6.11 µM, the TGI [43] was greater than 100 µM and the GI50 [44] was 7.68 µM. It also gave a TGI [44] greater than 100 µM, a GI50 [45] of 4.36 µM and a TGI [45] greater than 100 µM. For the same molecule, the GI50 [46] was 8.4 µM, the TGI [46] was greater than 100 µM and the GI50 [47] was 3.64 µM. The TGI [47] was 18.2 µM, the GI50 [48] was 30.3 µM and the TGI [48] was greater than 100 µM. It also gave a GI50 [49] of 7.43 µM, a TGI [49] greater than 100 µM and a GI50 [50] of 29.3 µM. The TGI [50] was greater than 100 µM, the GI50 [51] was 3.75 µM and the TGI [51] was 34.2 µM. It also gave a GI50 [52] of 2.91 µM, a TGI [52] greater than 100 µM and a GI50 [53] of 3.89 µM. The TGI [53] was greater than 100 µM, the GI50 [54] was 4.91 µM and the TGI [54] was greater than 100 µM. It also gave a GI50 [55] of 19.7 µM, a TGI [55] greater than 100 µM and a GI50 [56] of 4.77 µM. The TGI [56] was greater than 100 µM, the GI50 [57] was 8.36 µM and the TGI [57] was greater than 100 µM. The GI50 [58] was 4.1 µM, the TGI [58] was 36.7 µM and the GI50 [59] was 11.4 µM. The TGI [59] was greater than 100 µM.
`CCOC(=O)C(Cc1ccccc1)N1C(=O)/C(=C/N2N=C(c3ccc(OC)cc3)CC2c2ccc3ccccc3c2)SC1=S` (stereo unspecified) was tested, and the GI50 [1] was 5.31 µM, the TGI [1] was 27.9 µM and the GI50 [2] was 5.08 µM. The TGI [2] was 19.5 µM, the GI50 [3] was 7.08 µM and the TGI [3] was 27.3 µM. The GI50 [4] was 4.86 µM, the TGI [4] was 21.7 µM and the GI50 [5] was 5.79 µM. It also gave a TGI [5] of 19.8 µM, a GI50 [6] of 3.76 µM and a TGI [6] of 21.7 µM. It also gave a GI50 [7] of 3.27 µM, a TGI [7] greater than 100 µM and a GI50 [8] of 3.09 µM. For the same molecule, the TGI [8] was 14.7 µM, the GI50 [9] was 11.2 µM and the TGI [9] was 36.5 µM. The GI50 [10] was 2.46 µM, the TGI [10] was 11.5 µM and the GI50 [11] was 3.05 µM. For the same molecule, the TGI [11] was 10.2 µM, the GI50 [12] was 3.3 µM and the TGI [12] was 17.4 µM. It also gave a GI50 [13] of 2.6 µM, a TGI [13] of 10.4 µM and a GI50 [14] of 3.54 µM. It also gave a TGI [14] of 16.5 µM, a GI50 [15] of 3.82 µM and a TGI [15] of 19.6 µM. For the same molecule, the GI50 [16] was 2.65 µM, the TGI [16] was 12.1 µM and the GI50 [17] was 2.62 µM. The TGI [17] was 16.6 µM, the GI50 [18] was 3.29 µM and the TGI [18] was 13.5 µM. It also gave a GI50 [19] of 4.09 µM, a TGI [19] of 15.6 µM and a GI50 [20] of 3.69 µM. It also gave a TGI [20] greater than 100 µM, a GI50 [21] of 3.54 µM and a TGI [21] of 13.3 µM. The GI50 [22] was 2.8 µM, the TGI [22] was 10.8 µM and the GI50 [23] was 4.49 µM. For the same molecule, the TGI [23] was 41.7 µM, the GI50 [24] was 3.24 µM and the TGI [24] was 13.6 µM. The GI50 [25] was 2.35 µM, the TGI [25] was 7.63 µM and the GI50 [26] was 4.29 µM. The TGI [26] was 17.9 µM, the GI50 [27] was 3.57 µM and the TGI [27] was 17.8 µM. It also gave a GI50 [28] of 2.33 µM, a TGI [28] of 7.25 µM and a GI50 [29] of 3.45 µM. For the same molecule, the TGI [29] was greater than 100 µM, the GI50 [30] was 2.56 µM and the TGI [30] was 12.8 µM. The GI50 [31] was 3.47 µM, the TGI [31] was 14.5 µM and the GI50 [32] was 3.19 µM. It also gave a TGI [32] of 13.8 µM, a GI50 [33] of 2.49 µM and a TGI [33] of 8.88 µM. For the same molecule, the GI50 [34] was 14.1 µM, the TGI [34] was 91.3 µM and the GI50 [35] was 3.21 µM. The TGI [35] was 11.7 µM, the GI50 [36] was 6.63 µM and the TGI [36] was 40.1 µM. For the same molecule, the GI50 [37] was 13.6 µM, the TGI [37] was 27.2 µM and the GI50 [38] was 3.57 µM. For the same molecule, the TGI [38] was 15.3 µM, the GI50 [39] was 3.78 µM and the TGI [39] was 40.9 µM. The GI50 [40] was 2.79 µM, the TGI [40] was greater than 100 µM and the GI50 [41] was 2.22 µM. For the same molecule, the TGI [41] was 6.36 µM, the GI50 [42] was 3.47 µM and the TGI [42] was 22.9 µM. It also gave a GI50 [43] of 2.11 µM, a TGI [43] of 7.21 µM and a GI50 [44] of 3.21 µM. It also gave a TGI [44] of 10.4 µM, a GI50 [45] of 2.18 µM and a TGI [45] of 5.03 µM. It also gave a GI50 [46] of 3.5 µM, a TGI [46] of 13.1 µM and a GI50 [47] of 2.24 µM. It also gave a TGI [47] of 5.51 µM, a GI50 [48] of 5.28 µM and a TGI [48] of 20.6 µM. For the same molecule, the GI50 [49] was 3.34 µM, the TGI [49] was 13.2 µM and the GI50 [50] was 3.35 µM. It also gave a TGI [50] of 16.4 µM, a GI50 [51] of 2.15 µM and a TGI [51] of 19.3 µM. It also gave a GI50 [52] of 7.1 µM, a TGI [52] greater than 100 µM and a GI50 [53] of 2.57 µM. The TGI [53] was 17 µM, the GI50 [54] was 3.06 µM and the TGI [54] was 34.1 µM. For the same molecule, the GI50 [55] was 4.97 µM, the TGI [55] was 19 µM and the GI50 [56] was 3.26 µM. The TGI [56] was 20.4 µM, the GI50 [57] was 5.44 µM and the TGI [57] was 23.1 µM. For the same molecule, the GI50 [58] was 2.33 µM, the TGI [58] was 6.97 µM and the GI50 [59] was 4.86 µM. The TGI [59] was 18.5 µM.
